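Grown in 96-well plates, cells were treated for 48 hours with each compound at five concentrations. Insufficient inhibition: endpoint recorded as highest concentration tested. TGI marks complete inhibition of growth.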
What was measured:
Assay in all cases: NCI-60 cell line screen, 48 h
[1] = test system: CCRF-CEM leukemia
[2] = test system: NCI/ADR-RES ovarian
[3] = test system: SR leukemia
[4] = test system: MDA-MB-435
[5] = test system: OVCAR-5 ovarian
[6] = test system: SF-295 CNS
[7] = test system: UACC-62 melanoma
[8] = test system: SK-MEL-5 melanoma
[9] = test system: NCI-H23 lung
[10] = test system: NCI-H226 lung
[11] = test system: BT-549 breast
[12] = test system: KM12 colon
[13] = test system: OVCAR-4 ovarian
[14] = test system: MOLT-4 leukemia
[15] = test system: M14 melanoma
[16] = test system: HCC-2998 colon
[17] = test system: HCT-15 colon
[18] = test system: SNB-75 CNS
[19] = test system: HOP-92 NSCLC
[20] = test system: UO-31 renal

Structure (SMILES) | TGI [1] | TGI [2] | TGI [3] | TGI [4] | TGI [5] | TGI [6] | TGI [7] | TGI [8] | TGI [9] | TGI [10] | TGI [11] | TGI [12] | TGI [13] | TGI [14] | TGI [15] | TGI [16] | TGI [17] | TGI [18] | TGI [19] | TGI [20]
COc1cc(/C=C/C(=N\NC(N)=S)c2sc(NNC(C)=O)nc2C)ccc1O | > 100 µM | > 100 µM | > 100 µM | > 100 µM | > 100 µM | > 100 µM | > 100 µM | > 100 µM | > 100 µM | > 100 µM | > 100 µM | > 100 µM | > 100 µM | > 100 µM | > 100 µM | > 100 µM | > 100 µM | > 100 µM | > 100 µM | > 100 µM
CCC(Nc1ncnc2nc[nH]c12)C(=O)O (stereo not drawn) | > 100 µM | > 100 µM | > 100 µM | > 100 µM | > 100 µM | > 100 µM | > 100 µM | > 100 µM | > 100 µM | > 100 µM | > 100 µM | > 100 µM | > 100 µM |  | > 100 µM | > 100 µM | > 100 µM | > 100 µM | > 100 µM | > 100 µM
CCOC(=O)NN(C(=O)OCC)C(C(=O)c1ccccc1)N(NC(=O)OCC)C(=O)OCC | > 100 µM | > 100 µM | > 100 µM | > 100 µM | > 100 µM | > 100 µM | > 100 µM | > 100 µM | > 100 µM | > 100 µM | > 100 µM | > 100 µM | > 100 µM | > 100 µM | > 100 µM | > 100 µM | > 100 µM | > 100 µM | > 100 µM | > 100 µM
CN(C)CC1CCC/C(=C\c2ccc(OC(=O)/C=C/c3ccc(Cl)cc3)cc2)C1=O (stereo not drawn) | 3.39 µM | 23 µM | 2.87 µM | 21.1 µM | 25.7 µM | 19.7 µM | 19.1 µM | 9.46 µM | 14.1 µM | 20.2 µM | 14.2 µM | 4.38 µM | 35.9 µM | 2.86 µM | 20 µM | 13.1 µM | 6.91 µM | 24.9 µM | 4.34 µM | 12.8 µM
CCNC(=S)NNC(=O)c1ccccc1Nc1ccccc1C(=O)NNC(=S)NCC | > 100 µM | > 100 µM | > 100 µM | > 100 µM | > 100 µM | > 100 µM | > 100 µM | > 100 µM | > 100 µM | > 100 µM | > 100 µM | > 100 µM | > 100 µM | > 100 µM | > 100 µM | > 100 µM | > 100 µM | > 100 µM | > 100 µM | > 100 µM
NC1=Nc2ccccc2Sc2cccc(F)c21 | 56.9 µM | > 100 µM | > 100 µM | > 100 µM | > 100 µM | > 100 µM | > 100 µM | > 100 µM | > 100 µM | > 100 µM | > 100 µM | > 100 µM | > 100 µM | > 100 µM | > 100 µM | > 100 µM | > 100 µM | > 100 µM | > 100 µM | > 100 µM
Cc1ccnc(Nc2[nH]c(C(=O)c3ccc(Cl)cc3)c(N)c2C(=S)Nc2ccccc2)c1 | > 100 µM | 11.1 µM | 39 µM | 35.3 µM | 55.3 µM | 36.8 µM | 25.3 µM |  | 46.5 µM | 45.6 µM | 30.5 µM | 32.4 µM | 29.4 µM | 48.5 µM | 31.9 µM | 29.7 µM | 34.2 µM | 39.7 µM | 35.3 µM | 37.2 µM
COc1ccc2[nH]c3c(c2c1)CC(=O)N1CCC[C@H](C1)CC31OCCCO1 | > 100 µM | > 100 µM | > 100 µM | > 100 µM | > 100 µM | > 100 µM | > 100 µM | > 100 µM | > 100 µM | > 100 µM | > 100 µM | > 100 µM | > 100 µM |  | > 100 µM | > 100 µM | > 100 µM | > 100 µM | > 100 µM | > 100 µM
C(=N\NC1=NCCN1)/c1ccc2ccccc2c1 | 41.8 µM | 39.4 µM | > 100 µM | 31.3 µM | 44 µM | 29.9 µM | 29 µM | 25.9 µM | 51.1 µM | 51.2 µM | 25.3 µM | 28 µM | 54.3 µM | 42.8 µM |  | 31.2 µM | 43.6 µM | > 100 µM | 13.3 µM | 19.9 µM
Cc1cc(C)n(-c2nc(C)c(CCO)c(=O)[nH]2)n1 | > 100 µM | > 100 µM | > 100 µM | > 100 µM | > 100 µM | > 100 µM | > 100 µM | > 100 µM | > 100 µM | > 100 µM | > 100 µM | > 100 µM | > 100 µM | > 100 µM | > 100 µM | > 100 µM | > 100 µM | > 100 µM | > 100 µM | > 100 µM
COc1ccc2c(c1)/c(=C/C#N)c1c3ccccc3[n+](C)n21 | 13.1 µM | > 100 µM | > 100 µM | 19.3 µM | 42.8 µM | 42.1 µM | 42.3 µM | > 44.8 µM | 45.4 µM | 21.4 µM | 26.1 µM | 17.9 µM | 22.9 µM | > 57.2 µM | 32.4 µM | 6.83 µM | 59.8 µM | 9.21 µM | 5.89 µM | 36.9 µM
N#CC1=C(N)N(/N=C/c2ccco2)C(c2ccco2)C1(C#N)C#N (stereo not drawn) | 19.2 µM | 61.2 µM | 39.3 µM | 41.4 µM | 41.7 µM | 79 µM | 42.4 µM | 29.3 µM | 35.8 µM | 37.7 µM | 34.9 µM | 28.7 µM | 32.5 µM | 30.3 µM | 43.6 µM | 34.7 µM | 38.8 µM | 36.6 µM | 33.5 µM | 34.4 µM
COC(=O)C1(Cc2ccccc2)Cc2cc3c(cc2C1O)CCC3 (stereo not drawn) | 60.1 µM | 76.8 µM | > 100 µM | 32.2 µM | 30.4 µM | 72 µM | 32.6 µM | 29.3 µM | 38.4 µM | 41.3 µM | 31.9 µM | 48.3 µM | 41.7 µM | 42.9 µM |  | 60.6 µM | > 100 µM | > 100 µM | 30.6 µM | 
COc1ccc(-c2oc3cc(O)c(OC)c(O)c3c(=O)c2O)cc1 | 14.8 µM | 48.5 µM | 20.8 µM | > 100 µM | > 70.1 µM | 53.6 µM | > 87.8 µM | 34 µM | > 100 µM | 24.4 µM | 72.8 µM | > 100 µM | > 100 µM | 12.9 µM | > 100 µM | > 60.2 µM | 52.2 µM | 63.2 µM | > 72.3 µM | > 61.3 µM
CSc1ccc2c(c1)c(CCN)c(C)n2Cc1ccccc1Cl | 3.89 µM | 4.77 µM | > 100 µM | 3.08 µM | 3.78 µM | 3.26 µM | 3.05 µM | 3.11 µM | 3.86 µM | 4.1 µM | 33.5 µM | 3.32 µM | 3.29 µM |  | 3.32 µM | 2.04 µM | 4.45 µM | 3.04 µM | 2.75 µM | 2.96 µM
CCN(C(=O)N[C@H](C(=O)N[C@@H](CSC)C(=O)N[C@@H](C)C(=O)OC)C(C)C)c1ccccc1 | 19.3 µM | > 100 µM | 18.2 µM | 27.8 µM | 29.5 µM | 36.7 µM | 27 µM | 30.8 µM | 33.4 µM | 31.8 µM | 32.5 µM | 29.1 µM | 47.4 µM | 26.7 µM | 28.7 µM | 39.3 µM | 36.2 µM | 27.8 µM | 26.3 µM | 31.3 µM

From PubChem BioAssay (NCI)
